Measured values reported in ChEMBL document CHEMBL4261547, “Bitopic fluorescent antagonists of the A2A adenosine receptor based on pyrazolo[4,3-e][1,2,4]triazolo[1,5-c]pyrimidin-5-amine functionalized congeners” (Medchemcomm, 2017).

Biological target: T1, Adenosine receptor A1 (Homo sapiens) (UniProt P30542)
T1 sequence (whole entry): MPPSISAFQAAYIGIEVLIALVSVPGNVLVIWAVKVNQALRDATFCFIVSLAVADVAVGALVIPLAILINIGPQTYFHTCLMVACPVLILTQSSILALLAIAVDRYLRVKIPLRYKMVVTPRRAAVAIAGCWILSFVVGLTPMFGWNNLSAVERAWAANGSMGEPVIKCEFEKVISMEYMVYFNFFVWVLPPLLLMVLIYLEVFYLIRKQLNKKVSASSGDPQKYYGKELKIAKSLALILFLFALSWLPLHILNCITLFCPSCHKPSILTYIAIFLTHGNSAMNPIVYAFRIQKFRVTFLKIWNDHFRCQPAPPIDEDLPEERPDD
Test: Binding affinity to recombinant human adenosine receptor A1 expressed in HEK293 cell membranes at 50 to 200 nM after 1 hr by FACS analysis relative to control

Compound: Nc1nc2c(cnn2CCCc2ccc(OCC(=O)NCCCCNC(=O)CCCCCNC(=O)COc3ccc(/C=C/C4=[N+]5C(=Cc6ccc(-c7cccs7)n6[B-]5(F)F)C=C4)cc3)cc2)c2nc(-c3ccco3)nn12
- Activity: < 25%
